Test results reported in patent publication US20160022818A1, “PHARMACEUTICAL FORMULATION COMPRISING LIPASE INHIBITOR HAVING INCREASED DISSOLUTION RATE AND REDUCED SIDE EFFECTS, AND METHOD FOR PREPARING SAME” (UNIVERSITY-INDUSTRY FOUNDATION, YONSEI UNIVERSITY, priority 2013, published 2016).

Assays:
[1] = Comparative dissolution test; assay type: physicochemical; settings: 900 ml 1% sodium lauryl sulfate, paddle 75 rpm, HPLC-UV
Description: A comparative dissolution test was performed on the compositions prepared by Examples 1 to 3 and on the compositions prepared by Comparative Examples 1 and 2.

[2] = test system: triglyceride levels in blood; assay: Measurement of triglyceride levels in blood by using SD-rat model; assay type: in vivo; settings: SD-rats, oral 2.5 mg orlistat per kg
Description: Using 7-week old SD-rats (Samtaco Bio Korea Inc.), 1 ml of an olive oil (Samchun Pure Chemical Co., Ltd., Korea) was administered to each group and a drug suspended in a 0.25% HPMC (hydroxypropylmethyl cellulose) solution (Shin-Etsu chemical, Japan) was orally administered to the rats (corresponds to 2.5 mg of orlistat per kg of the body weight). The control group was administered with distilled water instead of the drug suspension. The blood of rats was collected for a fixed time interval, the triglyceride levels in the blood were measured by Cleantech TG-S of Asan Pharmaceutical, and, with the triglyceride level in the blood before testing used as a standard, changes in triglyceride levels in the blood after administration of an olive oil and drugs were plotted in FIG. 4 and Table 4.

[3] = Oily leakage test using SD-rat model; assay type: in vivo; settings: of 26 SD-rats; 0.5 ml olive oil, oral 5 mg orlistat per kg, 6 hours later
Description: 7-week old SD-rats were used, 0.5 ml of an olive oil was administered for each group, and a drug was suspended in a 0.25% HPMC solution to be orally administered to the rats (corresponds to 5 mg of orlistat per kg of the body weight). 6 hours later, the evaluation was assessed through the number of rats having oily leakage from their anuses.

With `CCCCCCCCCCC[C@@H](C[C@@H]1OC(=O)[C@H]1CCCCCC)OC(=O)[C@H](CC(C)C)NC=O` [Comparative Example 1, orlistat] the “Dissolution rate at 10 minutes” value ([1]; Table 1) was 7.0%, the “Dissolution rate at 10 minutes” value ([1]; Table 3, various porous adsorbents) was 7.0% and the “AUC0->12 h (triglyceride level in blood)” value ([2]; 1 ml olive oil) was 648.0 ± 203.2 mg·h/dL. For the same compound, the “Cmax (triglyceride level in blood)” value ([2]; 1 ml olive oil) was 140.7 ± 64.1 mg/dL, the “Triglyceride level in blood (words, FIG. 4)” value ([2]; olive oil) was “did not show an increase” and the “Population having oily leakage” value [3] was 17 rats.
